SMILES strings stand for the structures. Several values for one entry are separate records, joined by “and”; a condition that tells them apart may be missing. Equal values may be shown once.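 Growth conditions: 96-well plates. Treatment: test compound, 48 hours, 5 concentrations. Analysis: linear interpolation between bracketing concentrations; unreached endpoints set to highest concentration. GI50 marks 50% less growth. At the TGI there is no net growth.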

Test systems include DLD-1 colon; DMS 114 small cell lung; DMS 273 small cell lung; HOP-18 NSCLC; KM20L2 colon; LXFL 529 NSCLC; M19-MEL melanoma; P388 leukemia; P388/ADR leukemia; SN12K1 renal; XF 498 CNS; RXF-631 renal.
What all share (assay): NCI tumour cell line growth inhibition, 48 h

On to `CCC1(O)CC(OC2CC(N(C)C)C(OC3CC4OC5CC(=O)C(C)OC5OC4C(C)O3)C(C)O2)c2c(cc3c(c2O)C(=O)c2c(O)ccc(O)c2C3=O)C1C(=O)OC` (stereo not given), for which the GI50 in the assay on DLD-1 colon is 0.00984 µM; with DMS 273 small cell lung it was 0.0075 µM; with HOP-18 NSCLC, 0.00875 µM and 0.0163 µM; in the assay with KM20L2 colon it was 0.00351 µM and 0.0075 µM; in the assay on P388 leukemia, 0.0075 µM; in the assay on P388/ADR leukemia, 0.0075 µM. For the same molecule, the GI50 with SN12K1 renal is 0.00862 µM; with XF 498 CNS, 0.00256 µM. Also, the TGI in the assay with DLD-1 colon was 0.69 µM and 0.13 µM; with DMS 114 small cell lung, 0.0431 µM and 0.0473 µM; in the assay with DMS 273 small cell lung, 0.0342 µM and 0.0217 µM; with HOP-18 NSCLC it was 0.0821 µM and 0.0764 µM; in the assay on KM20L2 colon it was 0.356 µM and 0.0462 µM and 0.0889 µM; with LXFL 529 NSCLC, 1.18 µM. Also, the TGI in the assay with M19-MEL melanoma is 0.0705 µM and 0.0241 µM; in the assay on P388 leukemia, 0.00422 µM and 0.00817 µM; with P388/ADR leukemia it was 0.008 µM and < 0.0451 µM; in the assay on SN12K1 renal it was 0.0369 µM and 0.0325 µM; with XF 498 CNS, 0.0199 µM and 0.0103 µM.
Consider `C=C1C(=O)OC2/C=C(\C)C(OC(C)=O)C3OC3C(C)(O)CC(OC(=O)/C(C)=C/C)C12` (stereo not given), for which the TGI with DMS 114 small cell lung came out at 20 µM; in the assay with DMS 273 small cell lung, 60 µM; in the assay on HOP-18 NSCLC it was 23.5 µM; in the assay on KM20L2 colon it was 15.2 µM; with LXFL 529 NSCLC it was 10.1 µM; in the assay on M19-MEL melanoma it was 22.3 µM. The TGI with XF 498 CNS was found to be 18.2 µM.
For the molecule `COc1ccc(Cn2c(C)nc3c2C(=O)c2ccccc2C3=O)cc1`, the TGI with DLD-1 colon was > 75 µM; with DMS 273 small cell lung, 19.7 µM; in the assay with KM20L2 colon, > 75 µM; in the assay on LXFL 529 NSCLC it was 28.7 µM; in the assay on M19-MEL melanoma, 16.7 µM; with XF 498 CNS it was 27.1 µM.
As for `CC12CC3C(CC1SCC(=O)O2)C3(C)C` (stereo not given), the TGI in the assay on DLD-1 colon, in the assay with DMS 114 small cell lung, in the assay on DMS 273 small cell lung, in the assay on HOP-18 NSCLC, with LXFL 529 NSCLC and with M19-MEL melanoma was > 100 µM in each case. Moreover, the TGI in the assay with XF 498 CNS was > 100 µM.
With `COc1cc(CCc2cccnc2)cc(OC)c1OC`, the TGI with DLD-1 colon, with DMS 114 small cell lung, in the assay on DMS 273 small cell lung, in the assay with HOP-18 NSCLC, with KM20L2 colon and in the assay on LXFL 529 NSCLC was > 100 µM in each case. The TGI with M19-MEL melanoma is > 100 µM.
For the molecule `COc1c2c(c3c(c1C1OC(C)[C@@H](C)O1)CC(C)(C)O3)C(=O)c1ccccc1C2=O` (stereo not given in full), the TGI with DLD-1 colon was > 100 µM; with DMS 114 small cell lung, > 100 µM; with DMS 273 small cell lung, 69.7 µM; in the assay on KM20L2 colon it was > 100 µM; with LXFL 529 NSCLC, > 100 µM; in the assay with M19-MEL melanoma, > 100 µM. Also, the figures for the TGI in the assay on RXF-631 renal and in the assay with XF 498 CNS were 33.4 µM and > 100 µM, respectively.
Take `CC(=O)OCC1OC(Nc2[nH]c(=O)n(C)c(=O)c2-c2csc(N)n2)C(OC(C)=O)C(OC(C)=O)C1OC(C)=O` (stereo not given): the TGI with DLD-1 colon, in the assay on DMS 114 small cell lung, in the assay on HOP-18 NSCLC, with KM20L2 colon, with LXFL 529 NSCLC and in the assay with M19-MEL melanoma was > 100 µM each time. Also, the TGI with RXF-631 renal was > 100 µM.
As to `Cn1cnc([N+](=O)[O-])c1Sc1nc2cc(Cl)c(F)cc2[nH]1`, the TGI in the assay on DLD-1 colon was found to be 22.7 µM; with DMS 114 small cell lung, 20.7 µM; with DMS 273 small cell lung, 17.2 µM; in the assay with HOP-18 NSCLC, 29 µM; in the assay on KM20L2 colon, 26.9 µM; in the assay with LXFL 529 NSCLC, 19.2 µM. The molecule further displayed a TGI in the assay with M19-MEL melanoma of 23.9 µM.
As for `O=C(Nc1cccc2ccccc12)Oc1ccccc1C1CCCCC1`, the TGI with DLD-1 colon amounted to 44.8 µM; in the assay with DMS 114 small cell lung, 41.9 µM; with DMS 273 small cell lung, 38.1 µM; with HOP-18 NSCLC, 33.2 µM; in the assay on KM20L2 colon it was 47.5 µM; with LXFL 529 NSCLC, 38.9 µM. In addition, the TGI in the assay on M19-MEL melanoma worked out at 43.4 µM; with RXF-631 renal, 36.7 µM.
Consider `O=C(O)CCCl`, for which the TGI in the assay on DLD-1 colon, with DMS 273 small cell lung, in the assay with HOP-18 NSCLC, with LXFL 529 NSCLC and with M19-MEL melanoma was > 5000 µM throughout.
For the molecule `CN(C)CC(/C(Cc1ccccc1)=N\NC(=O)C[n+]1ccccc1)c1ccccc1` (stereo not given), the TGI in the assay on DMS 114 small cell lung, in the assay on DMS 273 small cell lung, in the assay with HOP-18 NSCLC, in the assay on KM20L2 colon, in the assay with LXFL 529 NSCLC and in the assay with M19-MEL melanoma was > 100 µM throughout. The TGI with RXF-631 renal and in the assay with XF 498 CNS was > 100 µM in each case.
Take `O=C(CSc1nnc(-c2ccc(N=Cc3ccc(Cl)cc3)cc2)o1)Nc1ccccc1Cl`: the TGI in the assay with DMS 114 small cell lung, in the assay on DMS 273 small cell lung, in the assay with HOP-18 NSCLC, in the assay on KM20L2 colon, in the assay with LXFL 529 NSCLC and with M19-MEL melanoma was > 100 µM throughout. For the same molecule, the TGI with XF 498 CNS was > 100 µM.
Turning to `O=C(Nc1c(O)[nH]c(=S)[nH]c1=O)c1ccccn1`, the TGI with DLD-1 colon, in the assay on DMS 114 small cell lung, with HOP-18 NSCLC, in the assay on KM20L2 colon, in the assay on LXFL 529 NSCLC and in the assay on M19-MEL melanoma was > 100 µM each time. In addition, in the assay on RXF-631 renal, the TGI was > 100 µM.
On to `C[N+]1(C)CCCC1C(=O)[O-]` (stereo not given), for which the TGI in the assay with DLD-1 colon, in the assay with DMS 114 small cell lung, in the assay on DMS 273 small cell lung, in the assay on HOP-18 NSCLC, in the assay on KM20L2 colon and in the assay on LXFL 529 NSCLC was > 100 µM throughout. Further, the TGI in the assay on M19-MEL melanoma and with XF 498 CNS was > 100 µM throughout.
As for `Cc1c2cc[nH]c(C(F)(F)F)c2cc2c1nc1ccccc12`, the TGI with DLD-1 colon, in the assay with DMS 114 small cell lung, in the assay on DMS 273 small cell lung, in the assay with KM20L2 colon, with M19-MEL melanoma and in the assay with P388 leukemia was > 125 µM in each case. The TGI was > 70.3 µM in the assay with P388/ADR leukemia, > 125 µM in the assay with SN12K1 renal and > 19.8 µM in the assay with XF 498 CNS.

The values above are taken from PubChem BioAssay (NCI).
